In assay [1] the test system is L-540. The assay is described as follows: cells. It counts as functional, cell-based, Homo sapiens. To be noted: Homo sapiens, L-540.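 Note: growth inhibition of the human L-540 cell line, read out with a viability assay.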
Description: SANGER: Inhibition of human L-540 cell growth in a cell viability assay.
Assay [2] has as its system SKM-1. The assay is described as follows: SANGER: Inhibition of human SKM-1 cell growth in a cell viability assay. It counts as functional, cell-based.
For assay [3], the system named is CESS. The assay is described as follows: SANGER: Inhibition of human CESS cell growth in a cell viability assay. It counts as functional, cell-based. Conditions: Homo sapiens, CESS.
Assay [4] concerns NCI-H1436. The assay is described as follows: cells. Conditions: Homo sapiens, NCI-H1436. It counts as functional, cell-based, Homo sapiens.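 Note: growth suppression of human NCI-H1436 cells, determined with a cell viability readout.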
Description: SANGER: Inhibition of human NCI-H1436 cell growth in a cell viability assay.
Assay [5] concerns NB7. The assay is described as follows: cells. To be noted: Homo sapiens, NB7. Type of assay: functional, cell-based, Homo sapiens.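 Note: growth inhibition of NB7 cells, read out with a cell viability assay.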
Description: SANGER: Inhibition of human NB7 cell growth in a cell viability assay.
For assay [6], the system named is UACC-812. The assay is described as follows: cells. Type of assay: functional, cell-based, Homo sapiens. To be noted: Homo sapiens, UACC-812.
Description: SANGER: Inhibition of human UACC-812 cell growth in a cell viability assay.
For assay [7], the system named is ST486. The assay is described as follows: SANGER: Inhibition of human ST486 cell growth in a cell viability assay. It counts as functional, cell-based. Conditions: Homo sapiens, ST486.
Assay [8] relates to LC-1F. The assay is described as follows: cells. It counts as functional, cell-based, Homo sapiens. To be noted: Homo sapiens, LC-1F.
Description: SANGER: Inhibition of human LC-1F cell growth in a cell viability assay.

SMILES strings stand for the structures.

A word on the IC50: it is the concentration needed to halve the response being measured. Regarding `COc1cc(N2CCN(C)CC2)ccc1Nc1ncc2c(n1)N(C)c1ccccc1C(=O)N2C`, the IC50 in assay [1] was more than 8 µM; in assay [2], more than 8 µM; in assay [3], 7.75 µM; in assay [4], more than 8 µM; in assay [5], more than 8 µM; in assay [6], more than 8 µM. For the same compound, the figures for the IC50 in assay [7] and in assay [8] were 3.49 µM and more than 8 µM, respectively.
Consider `CC[C@H](CO)Nc1nc(NCc2ccccc2)c2ncn(C(C)C)c2n1` [SELICICLIB], for which the IC50 in assay [1], in assay [2], in assay [3], in assay [4], in assay [5] and in assay [6] was more than 16 µM each time. In addition, the values for the IC50 in assay [7] and in assay [8] were 10.4 µM and more than 16 µM, respectively.
For `COc1cc2ncn(-c3cc(OCc4ccccc4S(C)(=O)=O)c(C#N)s3)c2cc1OC` [GSK-319347A], the IC50 in assay [1], in assay [2], in assay [3], in assay [4], in assay [5] and in assay [6] was more than 5 µM in each case. For the same compound, the half-maximal inhibitory concentration (IC50) in assay [7] and in assay [8] was more than 5 µM throughout.
Turning to `C#Cc1cccc(Nc2ncnc3cc(OCCOC)c(OCCOC)cc23)c1` [ERLOTINIB], the IC50 in assay [1], in assay [2], in assay [3], in assay [5], in assay [6] and in assay [7] was more than 2 µM in each case. In assay [8], inhibition was half-maximal at 0.606 µM (IC50).

Source of the values: ChEMBL document CHEMBL1201861, “Genomics of Drug Sensitity in Cancer screening data, Wellcome Trust Sanger Institute”.
